Tests used:
NS3-NS4A protease = biological target: T1, NS3-NS4A protease (Hepatitis C virus genotype 1a, UniProt P27958); assay: NS3-NS4A protease assay (NS3 inhibition assay, RETS1 substrate), Section B; assay type: biochemical; details: read-out: NS3-NS4A IC50
T1 construct: Recombinant E. coli or Baculovirus full-length NS3 was diluted to 3.33 μM with assay buffer; made in house; host or cells: E. coli or baculovirus (BV) system
Outline: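 Full-length NS3 (E. coli or baculovirus) precomplexed with excess NS4A-2 peptide, run at 2 nM (E. coli) or 3 nM (BV) NS3; compounds pre-incubated 10 min at room temperature before RETS1 substrate. Fluorescence (ex 335/em 495 nm) read kinetically 30 min; IC50 from four-parameter fit, converted to Ki via Ki=IC50/(1+[S]/Km).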

[1] = test system: HCV sub-genomic replicon, GS4.3; assay: Quantitation by ELISA of NPTII in the HCV sub-genomic replicon, GS4.3, Section B; assay type: cell-based; details: Hepatitis C virus; GS4.3 cells, 72 h incubation; read-out: Replicon EC50
Outline: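 GS4.3 cells (HuH-7 carrying HCV 1377/NS3-3′ replicon) were treated 72 h at 37 °C with inhibitors in 3-fold dilutions, 1% DMSO, no G418. Lysate NPTII was measured by ELISA (TMB, 450 nm). Signal as % of DMSO control; EC50 from 4-parameter fit.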

T1 sequence (P27958 1027-1657): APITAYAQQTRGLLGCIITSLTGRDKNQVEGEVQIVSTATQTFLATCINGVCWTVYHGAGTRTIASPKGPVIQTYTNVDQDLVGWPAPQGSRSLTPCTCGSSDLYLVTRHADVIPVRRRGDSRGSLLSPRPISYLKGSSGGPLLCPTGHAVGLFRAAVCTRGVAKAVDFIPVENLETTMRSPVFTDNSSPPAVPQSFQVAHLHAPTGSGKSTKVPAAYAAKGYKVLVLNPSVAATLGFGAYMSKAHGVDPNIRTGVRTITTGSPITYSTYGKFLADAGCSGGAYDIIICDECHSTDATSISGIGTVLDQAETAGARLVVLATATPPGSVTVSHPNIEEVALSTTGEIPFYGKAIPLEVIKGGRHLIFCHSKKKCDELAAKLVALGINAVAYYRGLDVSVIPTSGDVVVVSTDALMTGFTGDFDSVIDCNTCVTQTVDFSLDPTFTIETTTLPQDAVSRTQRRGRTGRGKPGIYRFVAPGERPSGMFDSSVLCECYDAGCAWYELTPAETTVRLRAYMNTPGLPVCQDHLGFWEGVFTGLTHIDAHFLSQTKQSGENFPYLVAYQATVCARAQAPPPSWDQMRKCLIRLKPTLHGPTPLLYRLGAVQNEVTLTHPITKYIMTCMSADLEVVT

Structure (SMILES)	IC50 (NS3-NS4A protease) [nM]	EC50 [1] [nM]
CC(C)(C)OC(=O)N[C@H]1CCCCC/C=C\[C@@H]2C[C@@]2(C(=O)NS(=O)(=O)C2CC2)NC(=O)[C@@H]2C[C@@H](OC(=O)N3CCc4c(F)cccc4C3)CN2C1=O [AR00298996, (1S,4R,6S,14S,18R)-5-Fluoro-3,4-dihydro-1H-isoquinoline-2-carboxylic acid 14-tert-butoxycarbonylamino-4-cyclopropanesulfonylaminocarbonyl-2,15-dioxo-3,16-diaza-tricyclo[14.3.0.0^4,6]nonadec-7-en-18-yl ester]	< 100	< 100
Cn1c(C(=O)O)ccc1S(=O)(=O)NC(=O)[C@@]12C[C@H]1/C=C\CCCCC[C@H](NC(=O)OC(C)(C)C)C(=O)N1C[C@H](OC(=O)N3Cc4ccccc4C3)C[C@H]1C(=O)N2 [AR00364266, (1S,4R,6S,14S,18R)-1,3-Dihydro-isoindole-2-carboxylic acid 14-tert-butoxycarbonylamino-4-(5-carboxy-1-methyl-1H-pyrrole-2-sulfonylaminocarbonyl)-2,15-dioxo-3,16-diaza-tricyclo[14.3.0.0^4,6]nonadec-7-en-18-yl ester]	< 100	< 1000
CC(C)(C)OC(=O)N[C@H]1CCCCCC=C[C@@H]2C[C@@]2(C(=O)NS(=O)(=O)C2CC2)NC(=O)[C@@H]2C[C@@H](OC(=O)N3Cc4ccccc4C(C)(C)C3)CN2C1=O [AR00312025, (1S,4R,6S,14S,18R)-4,4-Dimethyl-3,4-dihydro-1H-isoquinoline-2-carboxylic acid 14-tert-butoxycarbonylamino-4-cyclopropanesulfonylaminocarbonyl-2,15-dioxo-3,16-diaza-tricyclo[14.3.0.0^4,6]nonadec-7-en-18-yl ester]	< 100	< 100
COC(=O)c1ccc2c(c1)CN(C(=O)O[C@@H]1C[C@H]3C(=O)N[C@]4(C(=O)NS(=O)(=O)C5CC5)C[C@H]4/C=C\CCCCC[C@H](NC(=O)OC(C)(C)C)C(=O)N3C1)C2 [AR00365083, (1S,4R,6S,14S,18R)-1,3-Dihydro-isoindole-2,5-dicarboxylic acid 2-(14-tert-butoxycarbonylamino-4-cyclopropanesulfonylaminocarbonyl-2,15-dioxo-3,16-diaza-tricyclo[14.3.0.0^4,6]nonadec-7-en-18-yl) ester 5-methyl ester]	< 100	< 100
C[C@@H]1CN(C(=O)O[C@@H]2C[C@H]3C(=O)N[C@]4(C(=O)O)C[C@H]4/C=C\CCCCC[C@H](NC(=O)OC(C)(C)C)C(=O)N3C2)Cc2ccccc21 [AR00320123, (1S,4R,6S,14S,18R)-14-tert-Butoxycarbonylamino-18-(4S-methyl-3,4-dihydro-1H-isoquinoline-2-carbonyloxy)-2,15-dioxo-3,16-diaza-tricyclo[14.3.0.0^4,6]nonadec-7-ene-4-carboxylic acid]	< 1000	< 10000
CC(C)(C)OC(=O)N[C@H]1CCCCC/C=C\[C@@H]2C[C@@]2(C(=O)O)NC(=O)[C@@H]2C[C@@H](NC(=S)N3CCc4ccccc4C3)CN2C1=O [AR00304010, (1S,4R,6S,14S,18R)-14-tert-Butoxycarbonylamino-18-[(3,4-dihydro-1H-isoquinoline-2-carbothioyl)-amino]-2,15-dioxo-3,16-diaza-tricyclo[14.3.0.0^4,6]nonadec-7-ene-4-carboxylic acid]	< 1000	< 10000
O=C(N[C@H]1CCCCC/C=C\[C@@H]2C[C@@]2(C(=O)O)NC(=O)[C@@H]2C[C@@H](OC(=O)N3Cc4ccccc4C3)CN2C1=O)OC1CCOCC1 [AR00320077, (1S,4R,6S,14S,18R)-18-(1,3-Dihydro-isoindole-2-carbonyloxy)-2,15-dioxo-14-(tetrahydro-pyran-4-yloxycarbonylamino)-3,16-diaza-tricyclo[14.3.0.0^4,6]nonadec-7-ene-4-carboxylic acid]	< 1000	< 10000
CC(C)(C)OC(=O)N[C@H]1CCCCC/C=C\[C@@H]2C[C@@]2(C(=O)NS(=O)(=O)c2ccc(Cl)s2)NC(=O)[C@@H]2C[C@@H](OC(=O)N3Cc4ccc(Cl)cc4C3)CN2C1=O [AR00340173, (1S,4R,6S,14S,18R)-5-Chloro-1,3-dihydro-isoindole-2-carboxylic acid 14-tert-butoxycarbonylamino-4-(5-chloro-thiophene-2-sulfonylaminocarbonyl)-2,15-dioxo-3,16-diaza-tricyclo[14.3.0.0^4,6]nonadec-7-en-18-yl ester]	< 100	< 10000
O=C(CCC(F)(F)F)N[C@H]1CCCCC/C=C\[C@@H]2C[C@@]2(C(=O)NS(=O)(=O)C2CC2)NC(=O)[C@@H]2C[C@@H](OC(=O)N3Cc4cccc(F)c4C3)CN2C1=O [AR00338071, (1S,4R,6S,14S,18R)-4-Fluoro-1,3-dihydro-isoindole-2-carboxylic acid 4-cyclopropanesulfonylaminocarbonyl-2,15-dioxo-14-(4,4,4-trifluoro-butyrylamino)-3,16-diaza-tricyclo[14.3.0.0^4,6]nonadec-7-en-18-yl ester]	< 100	< 100
O=C(NC1CCCC1)N[C@H]1CCCCC/C=C\[C@@H]2C[C@@]2(C(=O)O)NC(=O)[C@@H]2C[C@@H](OC(=O)N3Cc4ccccc4C3)CN2C1=O [AR00304079, (1S,4R,6S,14S,18R)-14-(3-Cyclopentyl-ureido)-18-(1,3-dihydro-isoindole-2-carbonyloxy)-2,15-dioxo-3,16-diaza-tricyclo[14.3.0.0^4,6]nonadec-7-ene-4-carboxylic acid]	< 100	< 1000
O=C(N[C@H]1CCCCC/C=C\[C@@H]2C[C@@]2(C(=O)NS(=O)(=O)C2CC2)NC(=O)[C@@H]2C[C@@H](OC(=O)N3Cc4ccccc4C3)CN2C1=O)OCCF [AR00320073, (1S,4R,6S,14S,18R)-1,3-Dihydro-isoindole-2-carboxylic acid 4-cyclopropanesulfonylaminocarbonyl-14-(2-fluoro-ethoxycarbonylamino)-2,15-dioxo-3,16-diaza-tricyclo[14.3.0.0^4,6]nonadec-7-en-18-yl ester]	< 100	< 100
CC(C)(C)OC(=O)N[C@H]1CCCCC/C=C\[C@@H]2C[C@@]2(C(=O)NS(=O)(=O)C2CC2)NC(=O)[C@@H]2C[C@@H](OC(=O)N3Cc4ccc(OCCOC(=O)N5CCOCC5)cc4C3)CN2C1=O [AR00345032, (1S,4R,6S,14S,18R)-5-[2-(Morpholine-4-carbonyloxy)-ethoxy]-1,3-dihydro-isoindole-2-carboxylic acid 14-tert-butoxycarbonylamino-4-cyclopropanesulfonylaminocarbonyl-2,15-dioxo-3,16-diaza-tricyclo[14.3.0.0^4,6]nonadec-7-en-18-yl ester]	< 100	< 100
O=C(N[C@H]1CCCCC/C=C\[C@@H]2C[C@@]2(C(=O)NS(=O)(=O)C2CC2)NC(=O)C2C[C@@H](OC(=O)N3CCc4ccccc4C3CN3CCCCC3)CN2C1=O)OC1CCCC1 (stereo partly drawn) [AR00320506, (1S,4R,6S,14S,18R)-1-Piperidin-1-ylmethyl-3,4-dihydro-1H-isoquinoline-2-carboxylic acid 14-cyclopentyloxycarbonylamino-4-cyclopropanesulfonylaminocarbonyl-2,15-dioxo-3,16-diaza-tricyclo[14.3.0.0^4,6]nonadec-7-en-18-yl ester]	< 100	< 100
CC(C)(C)OC(=O)N[C@H]1CCCCC/C=C\[C@@H]2C[C@@]2(C(=O)O)NC(=O)[C@@H]2C[C@@H](OC(=O)N3Cc4cc(Cl)c(Cl)cc4C3)CN2C1=O [AR00315999, (1S,4R,6S,14S,18R)-14-tert-Butoxycarbonylamino-18-(5,6-dichloro-1,3-dihydro-isoindole-2-carbonyloxy)-2,15-dioxo-3,16-diaza-tricyclo[14.3.0.0^4,6]nonadec-7-ene-4-carboxylic acid]	< 1000	< 10000
CC(C)(C)OC(=O)N[C@H]1CCCCC/C=C\[C@@H]2C[C@@]2(C(=O)O)NC(=O)[C@@H]2C[C@@H](OC(=O)N3CCc4nc(Nc5ccccc5)sc4C3)CN2C1=O [AR00304000, (1S,4R,6S,14S,18R)-14-tert-Butoxycarbonylamino-2,15-dioxo-18-(2-phenylamino-6,7-dihydro-4H-thiazolo[5,4-c]pyridine-5-carbonyloxy)-3,16-diaza-tricyclo[14.3.0.0^4,6]nonadec-7-ene-4-carboxylic acid]	< 1000	< 10000
O=C(NC1CCCC1)N[C@H]1CCCCC/C=C\[C@@H]2C[C@@]2(C(=O)O)NC(=O)[C@@H]2C[C@@H](OC(=O)N3CCc4ccccc4C3)CN2C1=O [AR00294378, (1S,4R,6S,14S,18R)-14-(3-Cyclopentyl-ureido)-18-(3,4-dihydro-1H-isoquinoline-2-carbonyloxy)-2,15-dioxo-3,16-diaza-tricyclo[14.3.0.0^4,6]nonadec-7-ene-4-carboxylic acid]	< 1000	< 10000
CC(C)(C)OC(=O)N[C@H]1CCCCC/C=C\[C@@H]2C[C@@]2(C(=O)NS(=O)(=O)C2CC2)NC(=O)[C@@H]2C[C@@H](OC(=O)N3Cc4ccc(C#N)cc4C3)CN2C1=O [AR00365082, (1S,4R,6S,14S,18R)-5-Cyano-1,3-dihydro-isoindole-2-carboxylic acid 14-tert-butoxycarbonylamino-4-cyclopropanesulfonylaminocarbonyl-2,15-dioxo-3,16-diaza-tricyclo[14.3.0.0^4,6]nonadec-7-en-18-yl ester]	< 100	< 1000

Reference: patent publication US7491794B2, “Macrocyclic compounds as inhibitors of viral replication” (Intermune, Inc., priority 2003, dated 2009)
